The target in assay [1] is human opioid receptor-like receptor (ORL-1) (Homo sapiens (Human), UniProt P41146). Nature of the assay: ORL-1 receptor radioligand binding assay ([3H]-nociceptin). The settings on record: binding affinity, bound given in μM, read-out: Ki ORL-1. As for the experimental part:
ORL-1 Receptor Binding Assay Procedure: Membranes from recombinant HEK-293 cells expressing the human opioid receptor-like receptor (ORL-1) (Perkin Elmer, Shelton, Conn.) was prepared by lysing cells in ice-cold hypotonic buffer (2.5 mM MgCl2, 50 mM HEPES, pH 7.4) (10 ml/10 cm dish) followed by homogenization with a tissue grinder/Teflon pestle. Membranes were collected by centrifugation at 30,000×g for 15 min at 4° C. and pellets resuspended in hypotonic buffer to a final concentration of 1-3 mg/ml. Protein concentrations were determined using the BioRad protein assay reagent with bovine serum albumen as standard. Aliquots of the ORL-1 receptor membranes were stored at −80° C.
Radioligand binding assays (screening and dose-displacement) use 0.1 nM [^3H]-nociceptin (Perkin Elmer, Shelton, Conn.; 87.7 Ci/mmole) with 12 μg membrane protein in a final volume of 500 μl binding buffer (10 mM MgCl2, 1 mM EDTA, 5% DMSO, 50 mM HEPES, pH 7.4). Non-specific binding was determined in the presence of […] unlabeled nociceptin (American Peptide Company). […] Fifty μl/well scintillation cocktail (Perkin Elmer, Shelton, Conn.) was added and plates are counted in a Packard Top-Count for 1 min/well. The data from screening and dose-displacement experiments were analyzed using Microsoft Excel and the curve fitting functions in GraphPad PRISM™, v. […]

In assay [2] the target is μ-opioid receptor (Homo sapiens (Human), UniProt P35372). Nature of the assay: μ-opioid receptor [35S]GTPγS functional assay, HEK-293 or CHO cells (Table 4). The assay is classed as biochemical. Summed up:
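Membranes from HEK-293, CHO or U-2 OS cells (or commercial) expressing recombinant μ receptor; 0.20 nM [35S]GTPγS, 3 mM GDP, saponin, in 100 mM NaCl/10 mM MgCl2/20 mM HEPES pH 7.4.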

For assay [3], the target named is κ-opioid receptor (Homo sapiens (Human), UniProt P41145). Nature of the assay: κ-opioid receptor [35S]GTPγS functional assay, U-2 OS cells (Table 5). The assay is classed as biochemical. Summed up: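 [35S]GTPγS binding in κ receptor membranes (0.026 μg/μl protein) with 10 μg/mL saponin, 3 μM GDP and 0.20 nM [35S]GTPγS in pH 7.4 HEPES/NaCl/MgCl2 buffer. Agonist incubation lasted 30 min at about 25 °C, followed by filtration and scintillation counting. Emax is expressed relative to U69,593.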
Background: Binding of GTPγS marks nucleotide exchange on a G protein.

As usually defined, the Ki is the dissociation constant of the complex between target and ligand, obtained from inhibition or displacement. The term Emax denotes the maximal effect, on the per cent scale that the assay sets. A word on the EC50: it is the concentration giving half of the maximal effect. Higher therefore signals lower potency in that assay. Turning to `NC(=O)[C@@H]1C[C@]23CCN(CC4CC4)[C@H](Cc4ccc(O)cc42)[C@]3(O)C1` [Compound 31, (2R,3aS,4R,9bS)-12-(cyclopropylmethyl)-3a,8-dihydroxy-1,2,3,3a,4,5-hexahydro-4,9b-(epiminoethano)cyclopenta-[a]naphthalene-2-carboxamide], the Ki in assay [1] was over 20 µM. In addition, the Emax in assay [2] (relative to DAMGO) was determined as 1%; in assay [3] (relative to U69,593), 87.5 ± 5.04%. Also, the EC50 in assay [2] (μ GTP, bound given in μM) was over 20 µM; in assay [3] (κ GTP) it was 0.00262 ± 2.4e-05 µM.

For the origin of these results see US9656962B2, “Ring-contracted morphinans and the use thereof” (Purdue Pharma L.P., priority 2013, dated 2017).
